Source: patent US8585782B2, “Use of specific bis(biphenyl)triazine derivatives and mixtures thereof as UV absorbers” (BASF SE, priority 2010, dated 2013)

Experiment: Measurement of solubility in capric/caprylic triglyceride
Assay type: physicochemical
Details: commercial triazine derivatives, state-of-the-art comparison

Compound	solubility in the cosmetic oil capric/caprylic triglyceride [%]
CCCCC(CC)COc1ccc(-c2nc(-c3ccc(OC)cc3)nc(-c3ccc(OCC(CC)CCCC)cc3O)n2)c(O)c1 (centres unmarked) [Tinosorb S]	6
CCCCC(CC)COC(=O)c1ccc(Nc2nc(Nc3ccc(C(=O)OCC(CC)CCCC)cc3)nc(Nc3ccc(C(=O)OCC(CC)CCCC)cc3)n2)cc1 (centres unmarked) [EHT, Ethylhexyl Triazone]	3
